# Key:
# [1] = rat
# Method: The weight of the pieces applied was 25.2 ± 1.6 mg (mean ± standard deviation [SD]) and the amount of vancomycin in the collagen sponge pieces was 11.2 ± 0.7 mg (mean ± SD). For placebo group (n = 6), a 10 mm × 10 mm piece of placebo-containing collagen sponge was applied. The pocket on the sham surgery side was sutured with no sponge so as to provide for a control.
# We administered 7.5 mg of vancomycin intraperitoneally to rats accompanied by a similar induction of s.c. infection; we measured the plasma levels in the same way as we did for the active arm.
# Blood samples (volume, 0.5 mL) for determination of vancomycin and haptoglobin levels were drawn from the jugular vein into a 0.5 mL heparinized syringe under isoflurane anesthesia. Samples were drawn from three animals in vancomycin group 0.5, 1, 2, and 4 h following inoculation on the 1st day to determine vancomycin and haptoglobin levels. Samples were also taken from all animals in placebo group on the 1st day 2 h following inoculation to determine haptoglobin level only. Samples from four animals in vancomycin group and two animals in placebo group were drawn on the 1st, 2nd, and 3rd day following inoculation. The final sample was drawn intracardially upon termination on day 4 following inoculation. The samples were centrifuged (12,000 rpm, 2 min) and the samples from days 1, 2, and 3 following inoculation were frozen at -20°C until analyzed. Vancomycin concentration in the blood as well as haptoglobin level (rat acute phase marker) were determined using a nephelometric method (Beckman Coulter, Indianapolis, IN, USA).
# [2] = children, 1000 mg vancomycin powder during spinal deformity surgery; cited from earlier work
# Method: Following the application of 1000 mg of vancomycin powder during sur ...
smiles,measurement,setting,value
CN[C@H](CC(C)C)C(=O)N[C@H]1C(=O)N[C@@H](CC(N)=O)C(=O)N[C@H]2C(=O)N[C@H]3C(=O)N[C@H](C(=O)N[C@H](C(=O)O)c4cc(O)cc(O)c4-c4cc3ccc4O)[C@H](O)c3ccc(c(Cl)c3)Oc3cc2cc(c3O[C@@H]2O[C@H](CO)[C@@H](O)[C@H](O)[C@H]2O[C@H]2C[C@](C)(N)[C@H](O)[C@H](C)O2)Oc2ccc(cc2Cl)[C@H]1O [vancomycin],AUC,"[1]; 7.5 mg vancomycin i.p., calculated from obtained levels",87.71 µg·h/mL
same,vancomycin level after 24 h,"[1]; 7.5 mg vancomycin i.p., detected in one animal only, nephelometric method",0.2 mg/L
same,expected AUC after 11.2 mg,"[1]; i.p., extrapolated from 7.5 mg dose to the sponge dose",130.9 µg·h/mL
same,"vancomycin level in fluid drained by subfascial drain, day 0",[2],403 mg/L
same,"vancomycin level in fluid drained by subfascial drain, day 1",[2],251 mg/L
same,"vancomycin level in fluid drained by subfascial drain, day 2",[2],115 mg/L
same,"vancomycin level in plasma, day 0",[2],2.5 mg/L
same,"vancomycin level in plasma, day 1",[2],1.9 mg/L
same,"vancomycin level in plasma, day 2",[2],1.1 mg/L

# Source: article PMC7861629 (Bosnian Journal of Basic Medical Sciences, 2021)
